Test results from patent publication USRE39061E1, “Pharmaceutical formulations comprising labdanes for the treatment of tumors or leukemias” (Medexis S.A., priority 1999, dated 2006).

Assays:
CCRF-CEM/C2 = type: cell-based; details: for GI50 / TGI: CCRF-CEM/C2 (MDR), 48 h, MTT
Experimental: (§1) Human cancer cell lines were used for in vitro drug testing. The cells were maintained as exponentially proliferating suspension cultures in RPMI-1640 medium (supplemented with 10% heat inactivated foetal calf serum, 2mM L-Glutamine and 50 μg/ml gentamycin and incubated at 37° C., in a humidified atmosphere with 5% CO2. Peripheral blood mononuclear cells (PBML) were also isolated from normal donors using the Ficoll-Hypaque method and cultured as the cancer cell lines.
(§2) To determine the cytotoxicity, log-phase cells from each cell line, resting and activated PBML (1×10^6 cells/ml), were incubated with free compound or liposomal formulation for 48 h, in 96-well flat-bottomed micro plates.
(§3) The initial inoculation densities for each cell line are presented in table (1) and were determined taking into account cell mass and growth rate (Monks A., Scudiero, D., Skehan P., Shomaker R., Pauli K., Vistica D., Hose C et al. Feasibility of a High-Flux Anticancer Drug screen using a diverse panel of cultured human tumor cell lines. JNCI 1991; 83(11): 757-766 Paul K D, Shomaker R H, Hodes L, Monks A, Scudiero D A, Rubinstein L., Plowman J and Boyd M R. Tumor Cell Lines: Development of Mean Graph and Compare Algorithm. JNCI 1989; 81(14): 1088-1092).
(§4) Cells were added at the appropriate inoculation densities in 96-well micro titer plates and preincubated for 24 hours in a moist atmosphere of 5% CO2 in air at 37 °C, to allow stabilization prior to addition of the test compounds. To determine their activity, the free compound or liposomal formulation were added at the same time to each cell line. Cultures, where an equivalent amount of DMSO was added, used as controls. After the addition of the test agents the cells were cultured in micro plates for an additional 48 h under the same conditions. Each test agent was inoculated at five concentrations (10−4 to 10−8 M). The activity for each compound on each cell line was determined by the MTT method with modifications. Briefly 4 h before the end of the 48 h incubation period, MTT (3-(4,5-dimethylthiazol-2-yl)-2-5 diphenyl tetrazolium bromide, Sigma-Aldrich) dissolved in PBS (Phosphate buffered saline), was added in the cell cultures to give a final concentration of 50 μg/ml. At the end of the 48 h incubation period, DMSO was added to the wells and the optical density was measured with an ANTHOS HT II Microelisa reader, using a test wavelength of 550 nm.
(§5) The data represent the means of experiments done in triplicates and were analyzed using a two-tailed Student's t-test.
(§6) Three parameters GI50, TGI and LC50 were estimated using the MTT method. […] TGI is the concentration of the test agent where 100*(T−T0)/(C−TO)=0 and measures the cytostatic effect. Finally LC50 is the concentration of the drug where 100*(T−TO)/TO=−50 and measures the cytotoxic effect of the drug. At the above formulas used for the calculation of the three parameters, T is the optical density of the test well after a 48 h period of exposure to test compound; TO is the optical density at the time zero (when the drug is added) and C is the optical density of the control well (cells incubated for 48 h with no additives).
(§7) The leukemic cell lines CCRF-CEM, MOLT4, HUT78 (T cells), RPMI 8226 (B cell line), HL60 (promyelocytic cell line), K562 (proerythrocytes) and the multi-drug resistant (MDR) cell lines: CCRF-CEM/C2, HL60/MXl and HL601MX2 were used. All cell lines were grown and tested for viability as described above. Free compounds and encapsulated (as described above) were tested according to the method described under cytotoxic activity (see Biological activity, above).
(§8) The Resistant Factor (RF) is defined as follows: GI50 of the MDR daughter cell line/GI50 of the parental cell line. The (−) represents a parental cell line more resistant than the daughter MDR line.

HL601/MX2 = type: cell-based; details: for GI50 / TGI: HL601/MX2 (MDR), 48 h, MTT
Experimental: as §1, §2, §3, §4, §5, §6, §7, §8

HL60/MX1 = type: cell-based; details: for GI50 / TGI: HL60/MX1 (MDR), 48 h, MTT
Experimental: as §1, §2, §3, §4, §5, §6, §7, §8

PBML (resting) = type: cell-based, human; details: for GI50 / TGI: normal PBML, resting, 48 h, MTT
Experimental: as §1, §2, §4, §5, §6, §7

PBML (stimulating) = type: cell-based, human; details: for GI50 / TGI: normal PBML, activated by 5 μg/ml PHA-P, 48 h, MTT
Experimental: as §1, §2, §4, §5, §6, §7

K562 = assay: Cytotoxic activity, MTT method, 48 h; type: cell-based; details: for GI50 / TGI: K562, 48 h, MTT
Experimental: as §1, §2
as §3, with “1088-1092). Viability of the cells was assessed by trypan blue dye exclusion, at the beginning of the experiment and was always greater than 98%.” for “1088-1092).”
as §4, §5, §6, §7

CCRF-CEM = assay: Cytotoxic activity, MTT method, 48 h; type: cell-based; details: for GI50 / TGI: CCRF-CEM, 48 h, MTT
Experimental: as §1, §2
as §3, with “1088-1092). Viability of the cells was assessed by trypan blue dye exclusion, at the beginning of the experiment and was always greater than 98%.” for “1088-1092).”
as §4, §5, §6, §7

HUT78 = assay: Cytotoxic activity, MTT method, 48 h; type: cell-based; details: for GI50 / TGI: HUT78, 48 h, MTT
Experimental: as §1, §2
as §3, with “1088-1092). Viability of the cells was assessed by trypan blue dye exclusion, at the beginning of the experiment and was always greater than 98%.” for “1088-1092).”
as §4, §5, §6, §7

MOLT4 = assay: Cytotoxic activity, MTT method, 48 h; type: cell-based; details: for GI50 / TGI: MOLT4, 48 h, MTT
Experimental: as §1, §2
as §3, with “1088-1092). Viability of the cells was assessed by trypan blue dye exclusion, at the beginning of the experiment and was always greater than 98%.” for “1088-1092).”
as §4, §5, §6, §7

RPMI 8226 = assay: Cytotoxic activity, MTT method, 48 h; type: cell-based; details: for GI50 / TGI: RPMI 8226, 48 h, MTT
Experimental: as §1, §2
as §3, with “1088-1092). Viability of the cells was assessed by trypan blue dye exclusion, at the beginning of the experiment and was always greater than 98%.” for “1088-1092).”
as §4, §5, §6, §7

HL60 = assay: Cytotoxic activity, MTT method, 48 h; type: cell-based; details: for GI50 / TGI: HL60, 48 h, MTT
Experimental: as §1, §2
as §3, with “1088-1092). Viability of the cells was assessed by trypan blue dye exclusion, at the beginning of the experiment and was always greater than 98%.” for “1088-1092).”
as §4, §5, §6, §7

SF-268 (CNS cancer) = assay: Growth percentages at 100 μM; type: cell-based, human
Experimental: as §1, §4
(§9) Three parameters GI50, TGI and LC50 were estimated using the MTT method. […] TGI is the concentration of the test agent where 100*(T−T0)/(C−TO)=0 and measures the cytostatic effect. Finally LC50 is the concentration of the drug where 100*(T−TO)/TO=−50 and measures the cytotoxic effect of the drug. […]

NCI-H460 (Lung cancer) = assay: Growth percentages at 100 μM; type: cell-based, human
Experimental: as §1, §4, §9

MCF-7 (Breast cancer) = assay: Growth percentages at 100 μM; type: cell-based, human
Experimental: as §1, §4, §9

[1] = system: leukemic cell lines (MEAN); assay: Cytotoxic activity, MTT method, mean over the leukemic cell lines; type: cell-based; details: for GI50 / TGI: MEAN of the nine leukemic cell lines
Experimental: as §1, §2
as §3, with “1088-1092). Viability of the cells was assessed by trypan blue dye exclusion, at the beginning of the experiment and was always greater than 98%.” for “1088-1092).”
as §4, §5, §6, §7

## CC(=CCO)CC[C@@H]1[C@@]2(C)CCCC(C)(C)[C@@H]2CC[C@@]1(C)O [Label-13-ene-8, 15 diol, labd-13-ene-8α,15-diol]
CCRF-CEM/C2
  CC50: 108 µM
  GI50: 42.3 µM
  TGI: 74.96 µM
HL601/MX2
  CC50: 102 µM
  GI50: 43.8 µM
  TGI: 73.14 µM
HL60/MX1
  CC50: 108 µM
  GI50: 52.3 µM
  TGI: 80.1 µM
PBML (resting)
  CC50: > 100 µM
  GI50: > 100 µM
  TGI: >>100 μM
PBML (stimulating)
  CC50: > 100 µM
  GI50: 66.2 µM
  TGI: >>100 μM
K562
  CC50: 200 µM
  GI50: 87.1 µM
  TGI: 159 µM
CCRF-CEM
  CC50: 200 µM
  GI50: 75.7 µM
  TGI: 141.08 µM
HUT78
  CC50: 200 µM
  GI50: 109 µM
  TGI: 186 µM
MOLT4
  CC50: 120 µM
  GI50: 32.3 µM
  TGI: 76.22 µM
RPMI 8226
  CC50: 118 µM
  GI50: 42.2 µM
  TGI: 80.08 µM
HL60
  CC50: 91.8 µM
  GI50: 47.7 µM
  TGI: 69.74 µM
SF-268 (CNS cancer)
  Growth Percentages: −88%
NCI-H460 (Lung cancer)
  Growth Percentages: −80%
MCF-7 (Breast cancer)
  Growth Percentages: −89%
[1]
  CC50: 139 µM
  GI50: 59.1 µM
  TGI: 104.48 µM

## CC(=O)OCC=C(C)CC[C@@H]1[C@@]2(C)CCCC(C)(C)[C@@H]2CC[C@@]1(C)O [Label-13-ene-8, 15-yl acetate, labd-13-ene,8α-ol,15-yl acetate]
CCRF-CEM/C2
  CC50: 111 µM
  GI50: 46.8 µM
  TGI: 78.83 µM
HL601/MX2
  CC50: 101 µM
  GI50: 38.8 µM
  TGI: 69.90 µM
HL60/MX1
  CC50: 106 µM
  GI50: 53.9 µM
  TGI: 80.14 µM
PBML (resting)
  CC50: > 100 µM
  GI50: > 100 µM
  TGI: >>100 μM
PBML (stimulating)
  CC50: > 100 µM
  GI50: 65.9 µM
  TGI: >>100 μM
K562
  CC50: 200 µM
  GI50: 78.2 µM
  TGI: 162.00 µM
CCRF-CEM
  CC50: 187 µM
  GI50: 69.1 µM
  TGI: 128.17 µM
HUT78
  CC50: 200 µM
  GI50: 95.2 µM
  TGI: 164.00 µM
MOLT4
  CC50: 137 µM
  GI50: 42.8 µM
  TGI: 89.95 µM
RPMI 8226
  CC50: 95.5 µM
  GI50: 41.3 µM
  TGI: 68.43 µM
HL60
  CC50: 89.3 µM
  GI50: 44.8 µM
  TGI: 67.04 µM
[1]
  CC50: 136 µM
  GI50: 56.8 µM
  TGI: 100.94 µM

## C=C[C@](C)(O)CC[C@@H]1[C@@]2(C)CCCC(C)(C)[C@@H]2CC[C@@]1(C)O [Label-14-ene-8, 13 diol, labd-14-ene-8,13-diol]
CCRF-CEM/C2
  CC50: 75.8 µM
  GI50: 29.1 µM
  TGI: 52.41 µM
HL601/MX2
  CC50: 76.8 µM
  GI50: 31.4 µM
  TGI: 54.12 µM
HL60/MX1
  CC50: 80.9 µM
  GI50: 42.9 µM
  TGI: 61.90 µM
PBML (resting)
  CC50: 93.1 µM
  GI50: 34.6 µM
  TGI: 63.8 µM
PBML (stimulating)
  CC50: 89 µM
  GI50: 33.1 µM
  TGI: 61.0 µM
K562
  CC50: 79.3 µM
  GI50: 35.6 µM
  TGI: 57.45 µM
CCRF-CEM
  CC50: 85 µM
  GI50: 35 µM
  TGI: 60.00 µM
HUT78
  CC50: 78.5 µM
  GI50: 33.7 µM
  TGI: 56.09 µM
MOLT4
  CC50: 77.7 µM
  GI50: 31.6 µM
  TGI: 54.66 µM
RPMI 8226
  CC50: 70.7 µM
  GI50: 14.9 µM
  TGI: 42.84 µM
HL60
  CC50: 80 µM
  GI50: 41.5 µM
  TGI: 60.72 µM
[1]
  CC50: 78.3 µM
  GI50: 32.9 µM
  TGI: 55.58 µM
